Experiments:
AnaPS = AnaPS (Aspergillus fischeri, UniProt A1DN09); assay: amino acid-dependent ATP-[…]PPi exchange; type: biochemical; settings: adenylation domain substrate; ATP co-substrate
TqaA = TqaA (Penicillium aethiopicum, UniProt F1CWE4); assay: amino acid-dependent ATP-[…]PPi exchange; type: biochemical; settings: adenylation domain substrate; ATP co-substrate

Chain of AnaPS (A1DN09 whole entry, the tested form may be a part): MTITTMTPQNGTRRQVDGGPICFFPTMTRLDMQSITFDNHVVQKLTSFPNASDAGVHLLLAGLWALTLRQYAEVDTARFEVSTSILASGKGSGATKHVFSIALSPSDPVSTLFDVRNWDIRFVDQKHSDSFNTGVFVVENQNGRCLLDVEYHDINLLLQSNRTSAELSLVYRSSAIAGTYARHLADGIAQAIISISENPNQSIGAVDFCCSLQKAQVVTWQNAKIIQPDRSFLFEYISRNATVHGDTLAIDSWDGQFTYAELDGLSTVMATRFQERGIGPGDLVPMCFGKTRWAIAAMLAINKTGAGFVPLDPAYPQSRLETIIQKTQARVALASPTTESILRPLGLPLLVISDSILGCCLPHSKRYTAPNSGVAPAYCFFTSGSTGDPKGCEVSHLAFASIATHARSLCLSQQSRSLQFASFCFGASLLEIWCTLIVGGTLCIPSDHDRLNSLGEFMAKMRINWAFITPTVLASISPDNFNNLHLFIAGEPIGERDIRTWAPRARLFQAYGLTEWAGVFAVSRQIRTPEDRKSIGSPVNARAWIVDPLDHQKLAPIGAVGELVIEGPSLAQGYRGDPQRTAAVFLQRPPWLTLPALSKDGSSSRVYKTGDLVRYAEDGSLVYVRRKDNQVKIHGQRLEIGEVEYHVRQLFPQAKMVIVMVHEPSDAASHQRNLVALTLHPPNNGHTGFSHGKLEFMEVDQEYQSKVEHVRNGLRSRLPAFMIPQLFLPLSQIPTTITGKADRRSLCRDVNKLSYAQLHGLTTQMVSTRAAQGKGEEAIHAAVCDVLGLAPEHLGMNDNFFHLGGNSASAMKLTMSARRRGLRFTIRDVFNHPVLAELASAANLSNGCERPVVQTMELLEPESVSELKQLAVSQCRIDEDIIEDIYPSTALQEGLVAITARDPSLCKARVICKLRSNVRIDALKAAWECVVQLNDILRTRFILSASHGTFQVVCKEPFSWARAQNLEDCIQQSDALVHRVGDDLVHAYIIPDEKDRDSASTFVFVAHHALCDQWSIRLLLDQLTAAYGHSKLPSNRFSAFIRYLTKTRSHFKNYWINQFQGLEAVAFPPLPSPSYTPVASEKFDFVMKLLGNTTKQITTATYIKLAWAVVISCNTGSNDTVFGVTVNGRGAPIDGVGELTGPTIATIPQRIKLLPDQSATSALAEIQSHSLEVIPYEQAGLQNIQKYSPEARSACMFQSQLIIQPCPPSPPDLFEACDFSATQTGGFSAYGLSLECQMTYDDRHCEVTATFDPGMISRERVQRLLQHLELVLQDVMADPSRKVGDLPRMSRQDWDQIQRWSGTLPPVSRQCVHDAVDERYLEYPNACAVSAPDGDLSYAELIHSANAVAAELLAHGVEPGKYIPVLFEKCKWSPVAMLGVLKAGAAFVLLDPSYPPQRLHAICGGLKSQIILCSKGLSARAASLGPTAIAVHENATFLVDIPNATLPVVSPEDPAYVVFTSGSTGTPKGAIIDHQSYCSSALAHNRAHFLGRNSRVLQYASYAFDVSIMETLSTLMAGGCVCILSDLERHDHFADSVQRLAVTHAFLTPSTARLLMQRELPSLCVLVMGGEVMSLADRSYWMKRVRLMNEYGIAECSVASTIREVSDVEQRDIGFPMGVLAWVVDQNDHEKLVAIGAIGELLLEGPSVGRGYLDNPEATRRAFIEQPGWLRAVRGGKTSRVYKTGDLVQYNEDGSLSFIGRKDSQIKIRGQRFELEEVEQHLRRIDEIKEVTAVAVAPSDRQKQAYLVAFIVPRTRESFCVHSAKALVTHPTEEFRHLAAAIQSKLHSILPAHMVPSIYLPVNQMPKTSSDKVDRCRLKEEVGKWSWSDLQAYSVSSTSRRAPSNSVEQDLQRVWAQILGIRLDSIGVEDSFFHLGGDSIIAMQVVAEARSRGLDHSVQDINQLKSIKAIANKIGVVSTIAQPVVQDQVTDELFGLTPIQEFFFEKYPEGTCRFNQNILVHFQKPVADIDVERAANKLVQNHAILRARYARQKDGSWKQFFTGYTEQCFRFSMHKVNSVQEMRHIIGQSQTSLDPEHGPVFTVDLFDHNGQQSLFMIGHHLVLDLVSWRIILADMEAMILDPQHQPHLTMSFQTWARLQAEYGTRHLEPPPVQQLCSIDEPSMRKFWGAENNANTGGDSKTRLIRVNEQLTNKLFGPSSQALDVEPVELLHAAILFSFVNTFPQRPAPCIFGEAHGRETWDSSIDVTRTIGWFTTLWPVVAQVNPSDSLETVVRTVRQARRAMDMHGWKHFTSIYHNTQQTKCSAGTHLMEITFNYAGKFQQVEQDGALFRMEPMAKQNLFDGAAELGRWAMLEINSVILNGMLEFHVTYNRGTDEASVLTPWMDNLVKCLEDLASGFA

Row | SMILES | amino acid-dependent ATP-[32P]PPi exchange (AnaPS) | amino acid-dependent ATP-[32P]PPi exchange (TqaA)
1 | N[C@@H](Cc1c[nH]c2ccccc12)C(=O)O [L-tryptophan] | Similarly, AnaPS A domains activated Ant and L-Trp | 
2 | Nc1ccccc1C(=O)O [anthranilate] | Similarly, AnaPS A domains activated Ant and L-Trp | TqaA specifically activated the three building blocks Ant, L-Trp and L-Ala

Source: paper PMC3505271 (Nature chemical biology, 2012)
